Reference: PubChem BioAssay (NCI)
“And” between values parts separate entries of the source, which are not always exact repeats. Identical values can stand only once.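 Method: 48-hour compound exposure of cells in 96-well plates, five concentrations, linear interpolation of endpoints. GI50: concentration for 50% inhibition of growth. TGI marks complete inhibition of growth.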 Where a SMILES comes first, the peptide text is derived from it. The star is where a group is joined. Trt = c1ccc(C(c2ccccc2)(c2ccccc2)*)cc1; Cbz = O=C(OCc1ccccc1)*

Key:
Assay in all cases: DTP human tumour cell line panel, 48 h
[1] = system: OVCAR-3 ovarian
[2] = system: HOP-62 NSCLC
[3] = system: EKVX NSCLC
[4] = system: PC-3 prostate
[5] = system: HOP-92 NSCLC
[6] = system: MCF7 breast
[7] = system: M14 melanoma
[8] = system: A498 renal
[9] = system: UACC-62 melanoma
[10] = system: BT-549 breast

Structure (SMILES)	TGI [1]	TGI [2] [µM]	TGI [3] [µM]	TGI [4] [µM]	TGI [5]	TGI [6] [µM]	TGI [7] [µM]	TGI [8]	TGI [9] [µM]	TGI [10] [µM]	GI50 [1]	GI50 [2] [µM]	GI50 [3]	GI50 [4]	GI50 [5]	GI50 [6]	GI50 [7]	GI50 [8]	GI50 [9] [µM]	GI50 [10]
O=S(=O)(O)SCCNCCCCCC1CCCCC1	11.2 µM	17.9	22.9	22.7	39.9 µM	7.32	18.4	40.6 µM	4.22	31.4	–	–	–	–	–	–	–	–	–	–
O=C(NOCCO)c1cc(CN2OCCCC2=O)c(F)c(F)c1Nc1ccc(I)cc1F	98.7 µM and > 10 µM	> 100	> 74.5	> 84.3	0.688 µM and 0.436 µM	> 100	0.0237	0.0355 µM and 0.115 µM	–	> 100	28.9 µM and > 10 µM	0.0195	0.0599 µM and 0.0806 µM	31.7 µM and > 10 µM	0.0223 µM and 0.0177 µM	28.8 µM and > 10 µM	< 0.01 µM and 0.00226 µM	< 0.01 µM and 0.00948 µM	< 0.01	17.3 µM and > 10 µM
CC(N1CCOCC1)C(O)(c1ccccc1)c1ccccn1 (configuration not stated)	> 100 µM	> 100	> 100	> 100	> 100 µM	> 100	> 100	> 100 µM	> 100	> 100	–	–	–	–	–	–	–	–	–	–
O=C(C=C=Nc1ccccc1)C(=O)N=C=Cc1ccccc1	2.97 µM	52.6	22.8	8.91	20.1 µM	12.6	6.46	34 µM	12.6	9.2	1.48 µM	21.4	6.81 µM	2.89 µM	5.57 µM	2.35 µM	2.16 µM	16 µM	4.26	2.59 µM
CC(/C=N/N=C(N)N)=N\N=C(N)N	130 µM	46.9	499	1300	62.5 µM	1120	425	1890 µM	236	928	11.1 µM	14.8	61.5 µM	40.3 µM	54.4 µM	19.4 µM	–	> 77.9 µM	> 55.3	40.9 µM
Cc1cc(Br)cc(C)c1NC(=O)C(=O)Nn1c(=S)[nH]c2ccccc2c1=O	> 100 µM	> 100	> 100	> 100	> 100 µM	> 100	> 100	> 100 µM	> 100	> 100	–	–	–	–	–	–	–	–	–	–
O=C(/C=C/c1ccc([N+](=O)[O-])cc1)c1cccc(Nc2nc(Nc3ccccc3)nc(Nc3ccccc3)n2)c1	63.4 µM	> 100	> 100	30.7	8.5 µM	4.21	90.6	28.1 µM	> 100	> 100	11.3 µM	32.2	22.3 µM	3.15 µM	0.662 µM	1.19 µM	21.6 µM	11.8 µM	21.7	27 µM
COC(=O)C(CSC(c1ccccc1)(c1ccccc1)c1ccccc1)NC(=O)C(CC(N)=O)NC(=O)OCc1ccccc1 (stereo not drawn) (Cbz-Asn-Cys(Trt)-OMe; configuration not given here)	4.67 µM	14.7	25.5	17.2	14.9 µM	27.4	3.69	13.8 µM	14.1	35.7	1.78 µM	3.77	4.15 µM	3.57 µM	2.64 µM	4.54 µM	1.68 µM	3.67 µM	3.15	14.8 µM
COc1ccc(C(=O)c2cc3c(N)c(C(=O)Nc4cccc(OC)c4)sc3nc2C)cc1	–	> 100	> 100	> 100	> 100 µM	> 100	> 100	–	> 100	> 100	–	–	0.997 µM	0.439 µM	2.39 µM	0.42 µM	0.341 µM	0.393 µM	0.594	1.67 µM
CSCCCNC(=O)[C@H](CSC)NC(=O)c1csc(CCNC(=O)[C@@H](NSc2ccccc2[N+](=O)[O-])C(C)O)n1 (some centres not stated)	> 100 µM	> 100	> 100	> 100	> 100 µM	> 100	> 100	> 100 µM	> 100	> 100	–	–	–	–	–	–	–	–	–	–
NNC(=O)C(O)C(O)C(=O)NN (configuration not stated)	> 100 µM	> 100	> 100	> 100	–	> 100	> 100	> 100 µM	> 100	> 100	–	–	–	–	–	–	–	–	–	–
CC(C(N)=O)N(C)C(=O)c1cnc2ccccc2c1 (configuration not stated)	> 100 µM	–	–	> 100	> 100 µM	> 100	> 100	> 100 µM	> 100	> 100	–	–	–	–	–	–	–	–	–	–
O=C(Nc1cccc(C(F)(F)F)c1)c1cc2ccccc2cc1O	6.1 µM	11.8	7.69	> 25.6	1.61 µM	> 43.6	48.7	7.4 µM	> 46.1	6.09	0.783 µM	2.61	1.87 µM	1.93 µM	0.252 µM	0.708 µM	3.26 µM	0.919 µM	0.835	1.27 µM
COc1ccc2c(c1)/C(=N/OC(C)=O)c1c-2cnc2ccccc12	–	46.6	> 100	48	37.2 µM	> 100	> 100	82 µM	36.3	> 100	–	20.8	23.1 µM	21.3 µM	18.3 µM	39.7 µM	29.6 µM	29.3 µM	16.6	49.5 µM
Cc1cc2nc3c4ccc(Br)cc4n(CCN(C)C)c3nc2cc1C	6.96 µM	10.7	6.58	4.22	5.28 µM	3.06	3.39	2.54 µM	3.68	3.75	2.04 µM	1.71	2.02 µM	1.51 µM	1.3 µM	1.17 µM	1.55 µM	1.02 µM	1.82	1.71 µM
CN1CCN(c2ccc3nc(-c4ccc(OCCCCN5CCN(CCCCN6C(=O)c7cccc8cccc(c78)C6=O)CC5)cc4)[nH]c3c2)CC1	> 100 µM	> 100	> 100	> 100	> 100 µM	> 100	> 100	> 100 µM	> 100	> 100	36.6 µM	> 100	> 100 µM	69.3 µM	71.4 µM	74.7 µM	> 100 µM	> 100 µM	40.7	40.4 µM
C=CC(C)(O)CC/C=C(\CO)C(=O)OC1C(C)OC(O[C@](C)(C=C)CC/C=C(\CO)C(=O)O[C@H]2C[C@@]3(C(=O)OC4OC(CO)C(O)C(O)C4OC4OC(C)C(OC5OC(CO)C(O)C5O)C(OC5OC(CO)C(O)C(O)C5O)C4O)C(CC2(C)C)C2=CCC4[C@@]5(C)CC[C@H](OC6OC(COC7OC(C)C(O)C(O)C7OC7OCC(O)C(O)C7O)C(O)C(O)C6NC(C)=O)C(C)(C)C5CC[C@@]4(C)[C@]2(C)C[C@H]3O)C(O)C1O (some centres not stated)	0.344 µM	1.58	5.02	1.97	0.794 µM	4.1	2.29	0.585 µM	5.28	10.6	0.0947 µM	0.275	0.901 µM	0.078 µM	0.0736 µM	0.822 µM	0.62 µM	0.142 µM	0.687	5.04 µM
Cc1cc2nc(-c3c(F)cccc3Cl)n(Cc3c(F)cccc3Cl)c2cc1C	–	29.1	–	12.6	33.5 µM	> 100	26.7	32.2 µM	19.3	46.2	–	13.9	–	3.44 µM	14 µM	12.8 µM	11.5 µM	15.5 µM	6.41	18.5 µM
COc1cccc2c1cc1c3c(cc4c(c32)OCO4)C(=O)N1	5.58 µM	37.6	–	24.4	6.98 µM	11.1	> 100	4 µM	> 100	4.74	2.5 µM	6.89	–	3.55 µM	1.71 µM	2.96 µM	12.1 µM	0.0914 µM	4.65	2.08 µM
COc1ccc(C2=Nc3c/c(=C\c4c(O)[nH]c5cc(Cl)ccc45)ccc3=N2)cc1	8.24 µM	29	–	28.9	9.83 µM	12.8	21.6	> 100 µM	22.7	18.3	2.43 µM	12.4	–	3.18 µM	0.553 µM	2.42 µM	4.17 µM	5.24 µM	8.95	3.65 µM
COC(=O)/C(=N\Nc1nnc(C)n1N)C(C#N)c1ccccc1 (configuration not stated)	> 100 µM	> 100	> 100	> 100	> 100 µM	–	> 100	> 100 µM	> 100	> 100	–	–	–	–	–	–	–	–	–	–
COc1cc(/C=N/NC(=O)c2ccccc2Nc2cccc(C(F)(F)F)c2)cc(OC)c1OC	2.33 µM	11	19.5	> 28.1	–	6.86	14.4	6.76 µM	11.6	9.23	0.797 µM	3.23	3.08 µM	3.34 µM	–	1.57 µM	3.35 µM	1.93 µM	3.66	2.3 µM
COc1cc2c(cc1OCCCOc1ccc(-c3nc4ccc(N5CCN(C)CC5)cc4[nH]3)cc1)N=C[C@@H]1CCCN1C2=O	< 0.01 µM	< 0.01	< 0.01	< 0.01	–	5.12	< 0.01	< 0.01 µM	< 0.0201	< 0.01	< 0.01 µM	< 0.01	< 0.01 µM	< 0.01 µM	–	< 0.01 µM	< 0.01 µM	< 0.01 µM	< 0.0133	< 0.01 µM
O=C(c1ccc2ccccc2c1)c1c(C(F)(F)F)n([O-])c2ccc(F)cc2[n+]1=O	–	3.39	3.35	3.39	2.95 µM	3.31	3.11	21 µM	2.95	3.22	–	1.91	1.8 µM	1.55 µM	1.21 µM	1.43 µM	1.67 µM	6.9 µM	1.6	1.75 µM
CNC(c1ccncc1)C(NC)c1ccncc1 (configuration not stated)	> 100 µM	> 100	> 100	> 100	–	> 100	> 100	> 100 µM	> 100	> 100	–	–	–	–	–	–	–	–	–	–
Cn1cc(C2=C(c3cn(CCCCC(=N)N)c4ccccc34)C(=O)NC2=O)c2ccccc21	> 25 µM	> 25	–	> 25	> 25 µM	> 25	> 25	> 25 µM	> 25	> 25	> 23.7 µM	> 25	–	> 25 µM	> 25 µM	10.9 µM	> 25 µM	> 25 µM	> 25	> 25 µM
Cc1ccc(-c2n[nH]c(=O)c3noc(-c4ccc(C)cc4)c23)cc1	3.41 µM	13.4	–	> 100	0.962 µM	> 100	> 100	6.71 µM	56.5	12.8	1 µM	0.835	–	2.07 µM	0.194 µM	0.565 µM	0.422 µM	1.27 µM	0.718	1.33 µM
NC(=O)c1ccc(N(C(N)=O)c2c(F)cccc2F)nc1-c1ccc(F)cc1F	> 100 µM	> 100	–	> 100	> 100 µM	> 100	> 100	> 100 µM	> 100	> 100	> 100 µM	> 100	–	> 100 µM	28 µM	> 100 µM	> 100 µM	> 45.4 µM	> 100	> 100 µM
